PMC4105567, “Aurora Kinases as Druggable Targets in Pediatric Leukemia: Heterogeneity in Target Modulation Activities and Cytotoxicity by Diverse Novel Therapeutic Agents” (PLoS ONE, 2014)
Where two headings read alike, the source gives them in different places.

Columns and labels:
KOPN8 B-ALL cell line = assay: Cytotoxicity assay, KOPN8; assay type: cell-based, human; conditions: Homo sapiens, KOPN-8, 96 h, four days in culture, Alamar blue assay or automated microscopy, ± SD, three experiments
Experimental: (§1) Cell lines were cultured in Opti-MEM medium (Gibco, Life Technologies Corporation, Burlington, Ontario) supplemented with 10% heat inactivated fetal bovine serum (FBS) (Gibco), 100 units/ml penicillin and 100 units/ml streptomycin (Gibco) and 0.05 mM 2-mercaptoethanol (Sigma-Aldrich, Oakville, Ontario) in T25 flasks (Nalge Nunc, Rochester, New York) or T75 flasks (Corning Incorporated, Corning, New York). All cell cultures were maintained at 37°C in a humidified incubator with 5% CO2.
(§2) For cytotoxicity profiling of Aurora kinase inhibitors against leukemia cell lines, inhibitors or vehicle control (DMSO, Sigma-Aldrich) were diluted in 100 µl of Opti-MEM per well in 96 well plates (Grenier Bio-One, Monroe, North Carolina) in triplicate at final concentrations ranging from 1×10^−6 to 10 µM. 1×10^4 cells per well were seeded and plates were incubated for 4 days. Following incubation for 4 days, cell survival was quantified by Alamar blue assay (Invitrogen) or automated inverted microscopy using the Celigo Cell Cytometer (Cyntellect, San Diego, California). […] During this period of incubation, the absorbance at 570–620 nm was measured (Opsys MR Plate Reader, Dynex Technologies, Chantilly, Virginia) at various time points, depending on the cell line or sample. Percent survival was calculated by comparing the absorbance ratio of the test well to the control well multiplied by 100%, as indicated in the following formula: […]
(§3) For automated inverted microscopy, the number of cells in each well was determined using the direct cell counting application as described previously. Briefly, following adjustment of image acquisition settings for bright-field imaging, the wells containing cells and appropriate dilutions of inhibitors were individually scanned. Based on these images, analysis parameters, including intensity threshold and cell diameter, were modified for optimal inclusion of viable cells in treated and control wells. These parameters were applied for subsequent replicates involving the same leukemia cell line or sample. The percent survival was then calculated as a ratio of the number of cells in treated wells to the number of cells in control wells multiplied by 100%. Given that Aurora kinase inhibitors interfere with cytokinesis, cells that are committed to death may still contain enlarging but intact cytoplasmic content before the eventual loss of cytoplasmic membrane integrity. The accuracy of Alamar blue assay may be, in theory, affected by the timing of these events.

CEM T-ALL cell line = assay: Cytotoxicity assay, CEM; assay type: cell-based, human; conditions: Homo sapiens, 96 h, four days in culture, Alamar blue assay or automated microscopy, ± SD, three experiments
Experimental: as §1, §2, §3

[1] = system: Patient #2 relapsed AML primary leukemia cells; assay: Cytotoxicity assay, primary sample Patient #2; assay type: cell-based, human; conditions: Homo sapiens, 96 h, four days in culture, Alamar blue assay or automated microscopy, one complete study
Experimental: (§4) These include B-ALL (Patient #1), relapsed AML (Patient #2), AML/CML (Patient #3), infant ALL (Patient #4), and initial ALL presenting with secondary AML (Patient #5). […] The diluted sample was then layered on a Ficoll-Paque (GE Healthcare, Piscataway, New Jersey) gradient at a 1∶2 ratio of Ficoll to diluted sample. Samples were then centrifuged 1800 rpm for 20 minutes at room temperature. The buffy coat was removed with a pipette and transferred to a new centrifuge tube and diluted with PBS. After an additional centrifugation at 1200 rpm, the white blood cell pellet was washed with PBS and centrifuged one last time. Cells were re-suspended in Opti-MEM and viable cells were counted using trypan blue (Invitrogen, Life Technologies Corporation, Burlington, Ontario) exclusion on a haemocytometer. An identical protocol was followed for the isolation of white blood cells, referred to as “normal lymphocytes” in the following paragraphs, from healthy volunteers. Samples grown in culture for up to six months were cultured in Opti-MEM medium supplemented with 10% heat inactivated FBS, penicillin/streptomycin and 2-mercaptoethanol.
as §2, §3

[2] = system: Patient #3 AML/CML primary leukemia cells; assay: Cytotoxicity assay, primary sample Patient #3; assay type: cell-based, human; conditions: Homo sapiens, 96 h, four days in culture, Alamar blue assay or automated microscopy, one complete study
Experimental: as §4, §2, §3

[3] = system: Patient #4 infant leukemia primary cells; assay: Cytotoxicity assay, primary sample Patient #4; assay type: cell-based, human; conditions: Homo sapiens, 96 h, four days in culture, Alamar blue assay or automated microscopy, one complete study
Experimental: as §4, §2, §3

HL-60 APML cell line = assay: Cytotoxicity assay, HL-60; assay type: cell-based, human; conditions: Homo sapiens, 96 h; APML cell line HL-60; four days in culture; Alamar blue assay or automated microscopy; ± SD, three experiments
Experimental: as §1, §2, §3

NB4 APML cell line = assay: Cytotoxicity assay, NB4; assay type: cell-based, human; conditions: Homo sapiens, 96 h, four days in culture, Alamar blue assay or automated microscopy, ± SD, three experiments
Experimental: as §1, §2, §3

HL-60 RA APML cell line = assay: Cytotoxicity assay, HL-60 RA; assay type: cell-based, human; conditions: Homo sapiens, 96 h; APML cell line HL-60 RA; four days in culture; Alamar blue assay or automated microscopy; ± SD, three experiments
Experimental: as §1, §2, §3

C1 B-ALL cell line = assay: Cytotoxicity assay, C1; assay type: cell-based, human; conditions: Homo sapiens, 96 h, four days in culture, Alamar blue assay or automated microscopy, ± SD, three experiments
Experimental: as §1, §2, §3

Bone Marrow Stroma = assay: Cytotoxicity assay, bone marrow stroma; assay type: cell-based, human; conditions: Homo sapiens, 96 h; bone marrow stroma (control for non-leukemia cytotoxicity); four days in culture; ± SD, three experiments
Experimental: as §2, §3

SEM B-ALL cell line = assay: Cytotoxicity assay, SEM; assay type: cell-based; conditions: Homo sapiens, 96 h, four days in culture, Alamar blue assay or automated microscopy, ± SD, three experiments
Experimental: as §1, §2, §3

B1 B-ALL cell line = assay: Cytotoxicity assay, B1; assay type: cell-based, human; conditions: Homo sapiens, 96 h, four days in culture, Alamar blue assay or automated microscopy, ± SD, three experiments
Experimental: as §1, §2, §3

UOCB1 B-ALL cell line = assay: Cytotoxicity assay, UOCB1; assay type: cell-based, human; conditions: Homo sapiens, UoC-B1, 96 h, four days in culture, Alamar blue assay or automated microscopy, ± SD, three experiments
Experimental: as §1, §2, §3

Aurora-C = conditions: read-out: Targets (IC50 Value): Aurora-C; literature values; ref [10],[40],[44]–[64] as listed per inhibitor in Table 1; cited from earlier work
Normal Lymphocytes = assay: Cytotoxicity assay, normal lymphocytes; assay type: cell-based, human; conditions: Homo sapiens, Lymphocyte, 96 h; normal lymphocytes (control for non-leukemia cytotoxicity); four days in culture; ± SD, three experiments
Experimental: as §4, §2, §3

MV4-11 AML cell line = assay: Cytotoxicity assay, MV4-11; assay type: cell-based, human; conditions: Homo sapiens, 96 h; AML cell line MV4-11; four days in culture; Alamar blue assay or automated microscopy; ± SD, three experiments
Experimental: as §1, §2, §3

[4] = system: normal cells versus leukemia cell lines; assay: Comparison of cytotoxicity IC50 values, normal cells versus leukemia cell lines; assay type: cell-based, human; conditions: normal lymphocytes and bone marrow stroma versus leukemia cell lines of Table 2
Experimental: as §2, §3

TIB-202 AML cell line = assay: Cytotoxicity assay, TIB-202; assay type: cell-based, human; conditions: Homo sapiens, 96 h; AML cell line TIB-202; four days in culture; Alamar blue assay or automated microscopy; ± SD, three experiments
Experimental: as §1, §2, §3

Molt-3 T-ALL cell line = assay: Cytotoxicity assay, Molt-3; assay type: cell-based, human; conditions: Homo sapiens, 96 h; T-ALL cell line Molt-3; four days in culture; Alamar blue assay or automated microscopy; ± SD, three experiments
Experimental: as §1, §2, §3

Molm13 AML cell line = assay: Cytotoxicity assay, Molm13; assay type: cell-based, human; conditions: Homo sapiens, MOLM-13, 96 h, four days in culture, Alamar blue assay or automated microscopy, ± SD, three experiments
Experimental: as §1, §2, §3

Nalm6 B-ALL cell line = assay: Cytotoxicity assay, Nalm6; assay type: cell-based, human; conditions: Homo sapiens, NALM-6, 96 h, four days in culture, Alamar blue assay or automated microscopy, ± SD, three experiments
Experimental: as §1, §2, §3

[5] = system: Patient #5 ALL/AML primary leukemia cells; assay: Cytotoxicity assay, primary sample Patient #5; assay type: cell-based, human; conditions: Homo sapiens, 96 h, read-out: IC50, Patient #5 ALL/AML
Experimental: as §4, §2, §3

[6] = system: Patient #1 B-ALL primary leukemia cells; assay: Cytotoxicity assay, primary sample Patient #1; assay type: cell-based, human; conditions: Homo sapiens, 96 h, four days in culture, Alamar blue assay or automated microscopy, one complete study
Experimental: as §4, §2, §3

Aurora-B = system: Aurora-B; design: method as in earlier work; conditions: literature values; ref [10],[22],[27],[40],[44]–[64] as listed per inhibitor in Table 1; read-out: Targets (IC50 Value): Aurora-B; cited from earlier work

Compound	IC50 (KOPN8 B-ALL cell line)	IC50 (CEM T-ALL cell line)	IC50 [1]	IC50 [2]	IC50 [3]	IC50 (HL-60 APML cell line)	IC50 (NB4 APML cell line)	IC50 (HL-60 RA APML cell line)	IC50 (C1 B-ALL cell line)	IC50 (Bone Marrow Stroma)	IC50 (SEM B-ALL cell line)	IC50 (B1 B-ALL cell line)	IC50 (UOCB1 B-ALL cell line)	IC50 (Aurora-C)	IC50 (Normal Lymphocytes)	IC50 (MV4-11 AML cell line)	IC50 values for the normal cells compared with IC50 values for the leukemia cell lines (potential therapeutic window) [4]	IC50 (TIB-202 AML cell line)	IC50 (Molt-3 T-ALL cell line)	IC50 (Molm13 AML cell line)	also measured
Cc1nc(N)sc1-c1ccnc(Nc2ccc(N3CCOCC3)cc2)n1 [CYC116]	1000 ± 600 nM	70 ± 9 nM	70 nM	> 10 µM	> 10 µM	7 ± 3 µM	3000 ± 2000 nM	300 ± 80 nM	200 ± 100 nM	5 ± 2 µM	100 ± 4 nM	1000 ± 600 nM	200 ± 90 nM	69 nM	> 10 µM	5 ± 4 nM	lower than the IC50 values for the normal cells, but not as pronounced	0.6 ± 0.05 µM	70 ± 20 nM	400 ± 200 nM	IC50 (Nalm6 B-ALL cell line): 500 ± 300 nM; IC50 ([5]; primary sample, four days in culture, Alamar blue assay or automated microscopy, one complete study): 0.4 nM; IC50 [6]: 10 nM
CCc1cccc(CC)c1NC(=O)N1Cc2n[nH]c(NC(=O)c3ccc(N4CCN(C)CC4)cc3)c2C1 [PHA-680632]	60 ± 20 nM	300 ± 100 nM	2000 nM	> 10 µM	> 10 µM	6 ± 2 µM	900 ± 90 nM	90 ± 10 nM	100 ± 50 nM	2 ± 0.9 µM	800 ± 300 nM	5000 ± 900 nM	1000 ± 500 nM	120 nM	> 10 µM	300 ± 200 nM	lower than the IC50 values for the normal cells, but not as pronounced	6 ± 1 µM	100 ± 60 nM	30 ± 20 nM	IC50 (Aurora-B): 135 nM; IC50 (Nalm6 B-ALL cell line): 400 ± 200 nM; IC50 [5]: 0.8 nM; IC50 [6]: 10 nM
